Laboratory results published in patent US20220395553A1, “CXCR4 ANTAGONIST PEPTIDES” (COHBAR, INC., priority 2019, published 2022).
Square brackets hold non-standard residues; d marks the D form. Peptide text beside a SMILES is read from it.

What was measured:
human CXCR4 [1] = biological target: T1, human CXCR4 (Homo sapiens, UniProt P61073); experiment: Inhibition of β-Arrestin recruitment, single concentration (Example 18); type: cell-based; set-up: host or cells: C2C12 (mouse myoblast) CXCR4 β-Arrestin PathHunter cell line; conditions: peptide 1 μM, […] CXCL12 (EC80), C2C12 CXCR4 β-Arrestin cells
Description: Peptides were initially prepared as 1 mM stock in DMSO and tested at a final concentration of 1 μM (0.1% DMSO). C2C12 CXCR4 β-Arrestin cells were seeded onto 384-well plates in standard medium. After overnight culture, the medium was replaced with buffer containing 1 μM peptide and pre-incubated for 30 min at 37° C. […] At the end of the 90 min incubation period, β-Arrestin recruitment in response to various treatments was quantified using a chemiluminescent complementation reporter assay to measure association of tagged human […] (ProLink tag) and tagged β-Arrestin (Enzyme Acceptor tag).

human CXCR4 [2] = biological target: T1, human CXCR4; experiment: CXCR4/CXCL12 binding, HTRF format, single concentration (Example 23); set-up: host or cells: HEK293 (Tag-lite CXCR4 cells, frozen aliquots, transient expression); conditions: 15 nM CXCR4R fluorescent probe, 3 hours, HEK293 Tag-lite CXCR4 cells
How it was run: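 Tag-lite CXCR4 cells were exposed to peptide at 400 nM final with 15 nM (EC80) fluorescent CXCR4 probe for 3 h at room temperature. HTRF was read, and the 665/620 nm ratio ×10,000 measured probe bound to terbium-labelled receptor.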

human CXCR4 [3] = biological target: T1, human CXCR4; experiment: IC50 for inhibition of β-Arrestin recruitment (Example 19); type: cell-based; set-up: host or cells: C2C12 (mouse myoblast) CXCR4 β-Arrestin PathHunter cell line
From the text: C2C12 CXCR4 β-Arrestin cells were seed onto 384-well plates in standard medium.

T1 sequence (P61073 whole entry): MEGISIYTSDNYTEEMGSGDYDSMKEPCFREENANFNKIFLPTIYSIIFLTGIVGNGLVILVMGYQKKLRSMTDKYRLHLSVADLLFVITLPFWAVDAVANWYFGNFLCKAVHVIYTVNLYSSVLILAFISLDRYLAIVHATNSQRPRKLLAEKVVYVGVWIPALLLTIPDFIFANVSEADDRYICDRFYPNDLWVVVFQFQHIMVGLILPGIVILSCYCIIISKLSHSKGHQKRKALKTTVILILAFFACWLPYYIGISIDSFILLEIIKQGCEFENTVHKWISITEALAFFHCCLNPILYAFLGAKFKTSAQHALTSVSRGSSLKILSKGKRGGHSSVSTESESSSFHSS

CC(C)C[C@H](NC(=O)[C@H](CO)NC(=O)[C@H](CO)NC(=O)[C@H](CCCNC(=N)N)NC(=O)[C@@H](NC(=O)[C@H](CO)NC(=O)[C@H](Cc1c[nH]cn1)NC(=O)[C@H](Cc1c[nH]cn1)NC(=O)[C@H](Cc1ccc(O)cc1)NC(=O)[C@H](CCCNC(=N)N)NC(=O)[C@H](CCCNC(=N)N)NC(=O)[C@@H](N)CC(C)C)C(C)C)C(=O)N[C@@H](CCCNC(=N)N)C(=O)N1CCC[C@H]1C(=O)N[C@@H](Cc1ccc(O)cc1)C(=O)N[C@H](C(=O)N[C@@H](CCCCN)C(=O)O)[C@@H](C)O [compound 3] (H-LRRYHHSVRSSLRPYTK-OH; N-terminus and C-terminus assumed)
Percent Inhibition of CXCL12 Mediated CXCR4 Activity (human CXCR4 [1]): 113.8%

CC(C)C[C@H](NC(=O)[C@H](CO)NC(=O)[C@H](CO)NC(=O)[C@H](CCCNC(=N)N)NC(=O)[C@@H](NC(=O)[C@H](CO)NC(=O)[C@H](Cc1c[nH]cn1)NC(=O)[C@H](Cc1c[nH]cn1)NC(=O)[C@H](Cc1ccc(O)cc1)NC(=O)[C@H](CCCNC(=N)N)NC(=O)[C@H](CCC(=O)O)NC(=O)[C@@H](N)CC(C)C)C(C)C)C(=O)N[C@@H](CCCNC(=N)N)C(=O)N1CCC[C@H]1C(=O)N[C@@H](Cc1ccc(O)cc1)C(=O)N[C@H](C(=O)N[C@@H](CCCCN)C(=O)O)[C@@H](C)O [compound 4] (H-LERYHHSVRSSLRPYTK-OH; N-terminus and C-terminus assumed)
Percent Inhibition of CXCR4/CXCL12 Binding (400 nM peptide) (human CXCR4 [2]): 88%

CC(C)C[C@H](NC(=O)[C@H](CO)NC(=O)[C@H](CO)NC(=O)[C@H](CCCNC(=N)N)NC(=O)[C@@H](C)NC(=O)[C@H](CO)NC(=O)[C@H](Cc1c[nH]cn1)NC(=O)[C@H](Cc1c[nH]cn1)NC(=O)[C@H](Cc1ccc(O)cc1)NC(=O)[C@H](CCCNC(=N)N)NC(=O)[C@H](CCC(=O)O)NC(=O)[C@@H](N)CC(C)C)C(=O)N[C@@H](CCCNC(=N)N)C(=O)N1CCC[C@H]1C(=O)N[C@@H](Cc1ccc(O)cc1)C(=O)N[C@H](C(=O)O)[C@@H](C)O [compound 5] (H-LERYHHS[dA]RSSLRPYT-OH; N-terminus and C-terminus assumed)
IC50 (human CXCR4 [3]): 121 nM
